Results published in patent publication US20080153896A1, “Polymorphic Forms of an HMG-CoA Reductase Inhibitor and Uses Thereof” (priority 2006, published 2008).

Experiment: Stability (integrity) testing of amorphous and polymorphic form under storage conditions, RP-HPLC
Assay type: physicochemical
Parameters: key to Impurity RRT 0.738 / Impurity RRT 0.949 / Impurity RRT 1.050 / Impurity RRT 1.550 / Impurity RRT 0.136 / Impurity RRT 0.720 / Impurity RRT 0.706 / Impurity RRT 1.18 / Impurity RRT 1.826: % of total UV absorption (HPLC peak area)
Method in brief: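 Amorphous form and three batches of polymorphic Form I of the hemi calcium salt were stored under different atmospheric conditions. Purity measured by RP-HPLC on C18 with UV detection, drug as percent of total absorption; total impurity from summed impurity peak areas, impurities identified by relative retention time.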

[1] = 25° C./60% RH 3M, hemi calcium salt
[2] = 25° C./60% RH 9M, hemi calcium salt

Description (5° C. 1M): White
Impurity RRT 1.094 (5° C. 1M): 0.157
Impurity RRT 1.437 (5° C. 1M): 0.155
Impurity RRT 1.593 (5° C. 1M): 0.082
Impurity RRT 1.694 (5° C. 1M): 0.069
Assay (5° C. 1M, hemi calcium salt): 98.31 % W/W
Highest Impurity (5° C. 1M, hemi calcium salt): 0.360
Impurity RRT 0.935 (5° C. 1M, hemi calcium salt): 0.360
Impurity RRT 1.045 (5° C. 1M, hemi calcium salt): 0.357
Impurity RRT 1.64 (5° C. 1M, hemi calcium salt): 0.057
Total Impurity (5° C. 1M, hemi calcium salt): 1.237
Water (5° C. 1M, hemi calcium salt): 4.81 % W/W
Description (5° C. 2M): White
Impurity RRT 1.094 (5° C. 2M): 0.161
Impurity RRT 1.180 (5° C. 2M): 0.048
Impurity RRT 1.437 (5° C. 2M): 0.164
Impurity RRT 1.593 (5° C. 2M): 0.085
Impurity RRT 1.694 (5° C. 2M): 0.067
Assay (5° C. 2M, hemi calcium salt): 98.25 % W/W
Highest Impurity (5° C. 2M, hemi calcium salt): 0.380
Impurity RRT 0.935 (5° C. 2M, hemi calcium salt): 0.380
Impurity RRT 1.045 (5° C. 2M, hemi calcium salt): 0.375
Impurity RRT 1.64 (5° C. 2M, hemi calcium salt): 0.051
Total Impurity (5° C. 2M, hemi calcium salt): 1.33
Water (5° C. 2M, hemi calcium salt): 4.61 % W/W
Description (5° C. 3M): White
Impurity RRT 1.094 (5° C. 3M): 0.149
Impurity RRT 1.437 (5° C. 3M): 0.169
Impurity RRT 1.593 (5° C. 3M): 0.077
Impurity RRT 1.694 (5° C. 3M): 0.056
Total Impurity (5° C. 3M): 1.35
Assay (5° C. 3M, hemi calcium salt): 98.20 % W/W
Highest Impurity (5° C. 3M, hemi calcium salt): 0.469
Impurity RRT 0.935 (5° C. 3M, hemi calcium salt): 0.385
Impurity RRT 1.045 (5° C. 3M, hemi calcium salt): 0.469
Impurity RRT 1.64 (5° C. 3M, hemi calcium salt): 0.047
Water (5° C. 3M, hemi calcium salt): 4.97 % W/W
Description (5° C. 4M): White
Impurity RRT 1.094 (5° C. 4M): 0.169
Impurity RRT 1.437 (5° C. 4M): 0.132
Impurity RRT 1.593 (5° C. 4M): 0.071
Impurity RRT 1.694 (5° C. 4M): 0.071
Assay (5° C. 4M, hemi calcium salt): 98.24 % W/W
Highest Impurity (5° C. 4M, hemi calcium salt): 0.419
Impurity RRT 0.935 (5° C. 4M, hemi calcium salt): 0.419
Impurity RRT 1.045 (5° C. 4M, hemi calcium salt): 0.409
Impurity RRT 1.640 (5° C. 4M, hemi calcium salt): 0.067
Total Impurity (5° C. 4M, hemi calcium salt): 1.338
Water (5° C. 4M, hemi calcium salt): 4.43 % W/W
Description (5° C. 5M): White
Impurity RRT 1.094 (5° C. 5M): 0.105
Impurity RRT 1.437 (5° C. 5M): 0.155
Impurity RRT 1.550 (5° C. 5M): 0.587
Impurity RRT 1.694 (5° C. 5M): 0.045
Assay (5° C. 5M, hemi calcium salt): 98.29 % W/W
Highest Impurity (5° C. 5M, hemi calcium salt): 0.587
Impurity RRT 0.935 (5° C. 5M, hemi calcium salt): 0.289
Impurity RRT 1.045 (5° C. 5M, hemi calcium salt): 0.312
Impurity RRT 1.640 (5° C. 5M, hemi calcium salt): 0.024
Total Impurity (5° C. 5M, hemi calcium salt): 1.517
Water (5° C. 5M, hemi calcium salt): 5.55 % W/W
Description (5° C. 6M): White
Impurity RRT 1.094 (5° C. 6M): 0.153
Impurity RRT 1.437 (5° C. 6M): 0.170
Impurity RRT 1.593 (5° C. 6M): 0.081
Impurity RRT 1.694 (5° C. 6M): 0.070
Water (5° C. 6M): 5.04 % W/W
Assay (5° C. 6M, hemi calcium salt): 98.02 % W/W
Highest Impurity (5° C. 6M, hemi calcium salt): 0.423
Impurity RRT 0.935 (5° C. 6M, hemi calcium salt): 0.423
Impurity RRT 1.045 (5° C. 6M, hemi calcium salt): 0.390
Impurity RRT 1.640 (5° C. 6M, hemi calcium salt): 0.053
Total Impurity (5° C. 6M, hemi calcium salt): 1.340
Description (5° C. 9M): White
Impurity RRT 1.094 (5° C. 9M): 0.161
Impurity RRT 1.180 (5° C. 9M): 0.055
Impurity RRT 1.437 (5° C. 9M): 0.170
Impurity RRT 1.593 (5° C. 9M): 0.065
Impurity RRT 1.694 (5° C. 9M): 0.064
Assay (5° C. 9M, hemi calcium salt): 98.12 % W/W
Highest Impurity (5° C. 9M, hemi calcium salt): 0.407
Impurity RRT 0.935 (5° C. 9M, hemi calcium salt): 0.407
Impurity RRT 1.045 (5° C. 9M, hemi calcium salt): 0.407
Impurity RRT 1.640 (5° C. 9M, hemi calcium salt): 0.033
Total Impurity (5° C. 9M, hemi calcium salt): 1.362
Water (5° C. 9M, hemi calcium salt): 5.07 % W/W
Description (5° C. 12M): White
Impurity RRT 1.094 (5° C. 12M): 0.158
Impurity RRT 1.180 (5° C. 12M): 0.022
Impurity RRT 1.437 (5° C. 12M): 0.152
Impurity RRT 1.593 (5° C. 12M): 0.086
Impurity RRT 1.694 (5° C. 12M): 0.068
Assay (5° C. 12M, hemi calcium salt): 97.78 % W/W
Highest Impurity (5° C. 12M, hemi calcium salt): 0.432
Impurity RRT 0.935 (5° C. 12M, hemi calcium salt): 0.417
Impurity RRT 1.045 (5° C. 12M, hemi calcium salt): 0.432
Impurity RRT 1.640 (5° C. 12M, hemi calcium salt): 0.051
Total Impurity (5° C. 12M, hemi calcium salt): 1.413
Water (5° C. 12M, hemi calcium salt): 5.08 % W/W
Assay (25° C./50% RH 6M): 98.01 % W/W
Description (25° C./50% RH 6M): White
Highest Impurity (25° C./50% RH 6M): 0.390
Impurity RRT 0.935 (25° C./50% RH 6M): 0.390
Impurity RRT 1.045 (25° C./50% RH 6M): 0.370
Impurity RRT 1.094 (25° C./50% RH 6M): 0.140
Impurity RRT 1.437 (25° C./50% RH 6M): 0.117
Impurity RRT 1.593 (25° C./50% RH 6M): 0.073
Impurity RRT 1.640 (25° C./50% RH 6M): 0.048
Impurity RRT 1.694 (25° C./50% RH 6M): 0.074
Total Impurity (25° C./50% RH 6M): 1.212
Water (25° C./50% RH 6M): 5.41 % W/W
Description (25° C./60% RH 3M): White
Impurity RRT 1.094 (25° C./60% RH 3M): 0.153
Impurity RRT 1.437 (25° C./60% RH 3M): 0.155
Impurity RRT 1.593 (25° C./60% RH 3M): 0.079
Impurity RRT 1.694 (25° C./60% RH 3M): 0.064
Assay [1]: 98.21 % W/W
Highest Impurity [1]: 0.388
Impurity RRT 0.935 [1]: 0.368
Impurity RRT 1.045 [1]: 0.382
Impurity RRT 1.64 [1]: 0.047
Total Impurity [1]: 1.270
Water [1]: 4.03 % W/W
Description (25° C./60% RH 9M): White
Impurity RRT 1.094 (25° C./60% RH 9M): 0.141
Impurity RRT 1.437 (25° C./60% RH 9M): 0.162
Impurity RRT 1.593 (25° C./60% RH 9M): 0.076
Impurity RRT 1.694 (25° C./60% RH 9M): 0.068
Assay [2]: 98.09 % W/W
Highest Impurity [2]: 0.376
Impurity RRT 0.935 [2]: 0.374
Impurity RRT 1.045 [2]: 0.376
Impurity RRT 1.640 [2]: 0.046
Total Impurity [2]: 1.243
Water [2]: 5.04 % W/W
Description (25° C./60% RH 12M): White
Impurity RRT 1.094 (25° C./60% RH 12M): 0.153
Impurity RRT 1.180 (25° C./60% RH 12M): 0.019
Impurity RRT 1.437 (25° C./60% RH 12M): 0.145
Impurity RRT 1.593 (25° C./60% RH 12M): 0.083
Impurity RRT 1.694 (25° C./60% RH 12M): 0.059
Assay (25° C./60% RH 12M, hemi calcium salt): 97.95 % W/W
Structure (SMILES): CC(C)c1c(C(=O)Nc2ccc(CO)cc2)c(-c2ccccc2)c(-c2ccc(F)cc2)n1CC[C@@H](O)C[C@@H](O)CC(=O)[O-].CC(C)c1c(C(=O)Nc2ccc(CO)cc2)c(-c2ccccc2)c(-c2ccc(F)cc2)n1CC[C@@H](O)C[C@@H](O)CC(=O)[O-].[Ca+2] [PP00405, (3R, 5R)-7-[2-(4-fluorophenyl)-5-isopropyl-3-phenyl-4-[(4-hydroxymethylphenylamino)carbonyl]-pyrrol-1-yl]-3,5-dihydroxy-heptanoic acid, hemi calcium salt]
